CC50 data for 35 compounds are collected here from ChEMBL document CHEMBL5303711, “ECBD screening data for assay EOS300108” (2023).

Calls of active or inactive are those of the source. How the calls were made is not given here.

The data set can be described thus: Cytotoxicity activity against human HepG2 cells assessed by CellTiter-Glo luminescent cell viability assay. It is filed as toxicity, cell-based. The following applies: HepG2 cells, read-out: IC50 relative. The arrangement: assay stage confirmatory assay, source tissue liver. (In general: ATP-based viability assays read luminescence as a measure of living cells.)

`Cc1ccc(/N=c2\ssnc2Cl)nc1`: the CC50 is 16.4 µM (inactive).

As for `CCCCc1c(C)[nH]n(-c2nc3ccccc3[nH]2)c1=O`, the CC50 is 8.9 µM (active).

Regarding `COc1cc(NCCCC(C)N)c2ncccc2c1` (stereo not given), the CC50 was 8.6 µM (active).

`CN1CCC2(CC1)CN(S(=O)(=O)c1ccc(Cl)s1)Cc1ccccc1O2`: the CC50 is 9.7 µM (active).

With `O=C(c1ccc(Cl)cc1)N(CCCc1ccccc1)CCS(=O)(=O)N1CCNCC1`, the CC50 is 10.2 µM (active).

As to `CC(C)N1CCN(Cc2nc(Cn3ccn4nc(-c5ccccc5)cc4c3=O)no2)CC1`, the CC50 is 8.2 µM (active).

In the case of `CC1(C)C2CC=C(CN(CCN3CCNCC3)C(=O)c3ccccc3Cl)C1C2` (stereo not given), the CC50 was 14.3 µM (inactive).

On to `O=C(Nc1cccnc1)c1ccc(Cn2nc(N3CCN(c4ccccc4)CC3)ccc2=O)o1`, for which the CC50 was 5.7 µM (active).

On to `CC(C)N1CC(CN)C2(CCCCC2)C1` (stereo not given), for which the CC50 was 11.6 µM (active).

As for `Cc1ccc(N2N=C(C(=O)N3CCCC3)S(=O)(=O)c3cccnc32)cc1`, the CC50 was 3.3 µM (active).

On to `CCN(CC)CCN(C(C)=O)c1nc2cc(C)cc(C)c2s1`, for which the CC50 is 8.6 µM (active).

As for `CC(C)COCC(O)CN1CCCN(c2ccc(NC(=O)COc3ccc(Cl)cc3)cn2)CC1` (stereo not given), the CC50 is 5.8 µM (active).

`NCC(c1ccc(Cl)cc1)C1CCCC1` (stereo not given): the CC50 was 8 µM (active).

Consider `Cc1cn2c(=O)c(S(=O)(=O)NCC3CCN(Cc4ccc(Cl)cc4)CC3)c(C)nc2s1`, for which the CC50 was 11.9 µM (active).

Take `CC(N)Cc1ccc2oc3ccccc3c2c1` (stereo not given): the CC50 was 8 µM (active).

In the case of `COc1cccc(C(=O)/N=c2\sc(C)c(C)n2Cc2ccc(C(=O)NCCN(C)C)o2)c1`, the CC50 is 12.2 µM (active).

`CC(C)Oc1ccc(C(=O)Nc2ccc3c(c2)N(S(C)(=O)=O)CCC3)cc1`: the CC50 was 2.7 µM (active).

Consider `COc1ccc(-c2cn3nc(N4CCC(C(=O)NCCN(C)C)CC4)sc3n2)cc1`, for which the CC50 is 3.6 µM (active).

`Cc1ccc(N2N=C(C(=O)NCCN3CCOCC3)S(=O)(=O)c3cc(F)ccc32)cc1`: the CC50 was 11.2 µM (active).

Regarding `Cc1nc(-c2cccc(C(=O)N3CCN(Cc4noc(-c5ccc(F)cc5)n4)CC3)c2)no1`, the CC50 was 5.4 µM (active).

With `COc1ccc(OC)c([N+]2=C3SCCCN3C(O)(c3ccc(C)cc3)C2)c1` (stereo not given), the CC50 is 11.6 µM (active).

On to `Nc1nc(Nc2ccccc2F)nc2ccccc12`, for which the CC50 was 8.4 µM (active).

With `CN(C)CCN(CCCN)Cc1ccco1`, the CC50 was 12.3 µM (active).

Take `CNS(=O)(=O)c1cc(-c2cc(C(=O)Nc3cccc(OC)c3)n[nH]2)ccc1OC`: the CC50 is 9.2 µM (active).

For `Cc1ccc(C)c(N2CCN(CCCNC(=O)CC3Oc4ccccc4NC3=O)CC2)c1` (stereo not given), the CC50 is 15.7 µM (active).

In the case of `O=C(Nc1nnc2ccccn12)c1ccc(F)c(Cl)c1`, the CC50 is 2.7 µM (active).

Take `CC(=O)N1CCCSc2ccc(S(=O)(=O)NCCCc3ccccc3)cc21`: the CC50 is 12.2 µM (active).

Regarding `CC(=O)C1=C(c2ccc(Br)cc2)N(C(C)=O)n2c(C)nnc2S1`, the CC50 was 10.9 µM (active).

With `CCOCC(=O)N1CCN(c2nc3c(s2)c(C)nn3-c2ccc(OC)cc2)CC1`, the CC50 was 11.5 µM (active).

With `CC(C(=O)NCCN(C)C)C1CCN(C(=O)c2cc3cc(Cl)ccc3[nH]2)CC1` (stereo not given), the CC50 was 6.3 µM (active).

On to `Cc1noc2ncnc(N3CCC(C(=O)N4CCc5ccccc54)CC3)c12`, for which the CC50 was 10.9 µM (active).

Take `COc1ccc(NS(=O)(=O)c2ccc(-c3cnc(C)o3)cc2)cc1OC`: the CC50 is 3.6 µM (active).

Consider `CCCS(=O)(=O)Nc1ccc(Nc2nc(C)cc(N(CC)CC)n2)cc1`, for which the CC50 is 6.4 µM (active).

Take `Cc1nc2n(c(=O)c1C)CN(CCCO)CN2c1ccc(Cl)cc1Cl`: the CC50 is 50 µM (inactive).

For `COc1cc(/N=c2\ssnc2Cl)cc(OC)c1OC`, the CC50 is 8.1 µM (active).
